{"source": "patent US20140018316A1", "about": "“OPHTHALMIC PHARMACEUTICAL COMPOSITION” (Hayashibara Co., Ltd., priority 2005, published 2014)", "system": "pig lens", "assay": "Swelling and cloudiness of extracted pig lenses soaked in test or control solutions (traumatic cataract model)", "set-up": "key to degree of cloudiness in the lens (relative value): relative gray-scale density; uninjured lens in saline at start = 10", "method": "Using an injured pig lens employed as a model for traumatic cataract, the influence of cyclic tetrasaccharide on the cloudiness in the lens was experimented as follows: A test solution was previously prepared by dissolving a cyclic tetrasaccharide crystal, penta hydrate, which had been prepared by the method in the later described Reference for Example 2, in physiological saline into a physiological saline containing 100 mM cyclic tetrasaccharide. As a positive control, a physiological saline containing 100 mM α,α-trehalose, a reagent grade specimen, commercialized by Hayashibara Biochemical Laboratories, Inc., Okayama, Japan, was used; andasanegativecontrol, physiological saline was used. Two milliliter aliquots of any one of the above three kinds of aqueous solutions were added to every two wells in respective commercialized 24-well culture plates. In one of the two wells containing the same kind of solution in each plate was placed a pig lens, which had been obtained from a slaughter-house, extracted by incision within three hours after the obtention and without injuring, and washing the extracted lens with physiological saline; while in the other of the two wells was placed a pig lens, which had been prepared by the same procedure as in the above but injured with a 27-gauge injection needle (commercialized by Terumo Co., Tokyo, Japan) to form an injured line, about one millimeter in length. These lens were allowed to stand at ambient temperature and macroscopically and microscopically observed their change in the degree of cloudiness and in the shape of swelling, etc. This experiment was run in a triplicate manner, and the macroscopic and microscopic observations were done just after (0), 1 hour, 2 hours, 6 hours, and 24 hours after the lenses were placed in the wells, and then observed daily over 28 days. A similar experiment was further conducted using a physiological saline containing 75 mM, 50 mM, 20 mM, 10 mM, or 1 mM cyclic tetrasaccharide and a lens that had not been injured with the injection needle. The degree of cloudiness in each lens, observed with “STEREOMICROSCOPE SZX12”, a product name of a stereomicroscope commercialized by Olympus Co., Tokyo, Japan, was expressed by photographing a transmitted light image of each lens with “PENGUIN 150CL”, a digital camera commercialized by Pixela Co., Tokyo, Japan, capturing the transmitted image by a computer using a view finder commercialized by Olympus Co., Tokyo, Japan, and expressing numerically the degree of light and shade of the captured image as a gray-scale using “Scion Image for Windows Beta 4.0.2”, a software commercialized by Scion Co., Maryland, U.S.A., to obtain a mean density for each lens. The time course change in the degree of cloudiness in each lens placed in each solution was expressed with a relative value, regarding the degree of cloudiness, just after the lens free of injury had been placed in physiological saline, as 10. The change of cloudiness and swelling are respectively in Tables 1 and 2. In Table 1, there show only the results from time 0 hour through two days and from days 7, 14 and 28.", "key": {"[1]": {"settings": "1 mM in physiological saline, no injury, 28 days"}, "[2]": {"settings": "10 mM in physiological saline, no injury, 28 days"}, "[3]": {"settings": "20 mM in physiological saline, no injury, 28 days"}, "[4]": {"settings": "pig lens in physiological saline"}}}
{"smiles": "OCC1OC2OCC3O[C@H](O[C@H]4C(O)C(CO)OC(OCC5O[C@H](O[C@@H](C1O)C2O)C(O)C(O)[C@@H]5O)C4O)C(O)C(O)[C@@H]3O", "note": "(stereo partly drawn) [Test solution, cyclo{→6)-α-D-glucopyranosyl-(1→3)-α-D-glucopyranosyl-(1→6)-α-D-glucopyranosyl-(1→3)-α-D-glucopyranosyl-(1→}]", "values": [{"measurement": "degree of cloudiness in the lens (relative value)", "setting": "1 mM in physiological saline, no injury, 1 hour", "value": 11}, {"measurement": "degree of cloudiness in the lens (relative value)", "setting": "1 mM in physiological saline, no injury, 2 hours", "value": 12}, {"measurement": "degree of cloudiness in the lens (relative value)", "setting": "1 mM in physiological saline, no injury, 6 hours", "value": 11}, {"measurement": "degree of cloudiness in the lens (relative value)", "setting": "1 mM in physiological saline, no injury, 24 hours", "value": 12}, {"measurement": "degree of cloudiness in the lens (relative value)", "setting": "1 mM in physiological saline, no injury, 2 days", "value": 14}, {"measurement": "degree of cloudiness in the lens (relative value)", "setting": "1 mM in physiological saline, no injury, 7 days", "value": 55}, {"measurement": "degree of cloudiness in the lens (relative value)", "setting": "1 mM in physiological saline, no injury, 14 days", "value": 61}, {"measurement": "degree of cloudiness in the lens (relative value)", "setting": "[1]", "value": 85}, {"measurement": "swelling of the lens", "setting": "[1]", "value": "◯ (swelling was observed)"}, {"measurement": "degree of cloudiness in the lens (relative value)", "setting": "1 mM in physiological saline, no injury, time 0", "value": 10}, {"measurement": "degree of cloudiness in the lens (relative value)", "setting": "10 mM in physiological saline, no injury, 1 hour", "value": 12}, {"measurement": "degree of cloudiness in the lens (relative value)", "setting": "10 mM in physiological saline, no injury, 2 hours", "value": 11}, {"measurement": "degree of cloudiness in the lens (relative value)", "setting": "10 mM in physiological saline, no injury, 6 hours", "value": 12}, {"measurement": "degree of cloudiness in the lens (relative value)", "setting": "10 mM in physiological saline, no injury, 24 hours", "value": 11}, {"measurement": "degree of cloudiness in the lens (relative value)", "setting": "10 mM in physiological saline, no injury, 2 days", "value": 13}, {"measurement": "degree of cloudiness in the lens (relative value)", "setting": "10 mM in physiological saline, no injury, 7 days", "value": 49}, {"measurement": "degree of cloudiness in the lens (relative value)", "setting": "10 mM in physiological saline, no injury, 14 days", "value": 59}, {"measurement": "degree of cloudiness in the lens (relative value)", "setting": "[2]", "value": 87}, {"measurement": "swelling of the lens", "setting": "[2]", "value": "◯ (swelling was observed)"}, {"measurement": "degree of cloudiness in the lens (relative value)", "setting": "10 mM in physiological saline, no injury, time 0", "value": 10}, {"measurement": "degree of cloudiness in the lens (relative value)", "setting": "20 mM in physiological saline, no injury, 1 hour", "value": 11}, {"measurement": "degree of cloudiness in the lens (relative value)", "setting": "20 mM in physiological saline, no injury, 2 hours", "value": 12}, {"measurement": "degree of cloudiness in the lens (relative value)", "setting": "20 mM in physiological saline, no injury, 6 hours", "value": 12}, {"measurement": "degree of cloudiness in the lens (relative value)", "setting": "20 mM in physiological saline, no injury, 24 hours", "value": 12}, {"measurement": "degree of cloudiness in the lens (relative value)", "setting": "20 mM in physiological saline, no injury, 2 days", "value": 14}, {"measurement": "degree of cloudiness in the lens (relative value)", "setting": "20 mM in physiological saline, no injury, 7 days", "value": 51}, {"measurement": "degree of cloudiness in the lens (relative value)", "setting": "20 mM in physiological saline, no injury, 14 days", "value": 60}, {"measurement": "degree of cloudiness in the lens (relative value)", "setting": "[3]", "value": 71}, {"measurement": "swelling of the lens", "setting": "[3]", "value": "◯ (swelling was observed)"}, {"measurement": "degree of cloudiness in the lens (relative value)", "setting": "20 mM in physiological saline, no injury, time 0", "value": 10}, {"measurement": "cloudiness in the lens (in words)", "setting": "20 mM, 10 mM or 1 mM, lenses with no injury, from seven days", "value": "cloudiness was observed throughout the lenses"}, {"measurement": "swelling of the lens (in words)", "setting": "20 mM, 10 mM or 1 mM, lenses with no injury, until 14 days", "value": "No swelling of the lenses was observed"}, {"measurement": "degree of cloudiness in the lens (relative value)", "setting": "50 mM in physiological saline, no injury, 1 hour", "value": 11}, {"measurement": "degree of cloudiness in the lens (relative value)", "setting": "50 mM in physiological saline, no injury, 2 hours", "value": 12}, {"measurement": "degree of cloudiness in the lens (relative value)", "setting": "50 mM in physiological saline, no injury, 6 hours", "value": 12}, {"measurement": "degree of cloudiness in the lens (relative value)", "setting": "50 mM in physiological saline, no injury, 24 hours", "value": 12}, {"measurement": "degree of cloudiness in the lens (relative value)", "setting": "50 mM in physiological saline, no injury, 2 days", "value": 13}, {"measurement": "degree of cloudiness in the lens (relative value)", "setting": "50 mM in physiological saline, no injury, 7 days", "value": 15}, {"measurement": "degree of cloudiness in the lens (relative value)", "setting": "50 mM in physiological saline, no injury, 14 days", "value": 20}, {"measurement": "degree of cloudiness in the lens (relative value)", "setting": "50 mM in physiological saline, no injury, 28 days", "value": 28}, {"measurement": "degree of cloudiness in the lens (relative value)", "setting": "50 mM in physiological saline, no injury, time 0", "value": 10}, {"measurement": "degree of cloudiness in the lens (relative value)", "setting": "75 mM in physiological saline, no injury, 1 hour", "value": 11}, {"measurement": "degree of cloudiness in the lens (relative value)", "setting": "75 mM in physiological saline, no injury, 2 hours", "value": 12}, {"measurement": "degree of cloudiness in the lens (relative value)", "setting": "75 mM in physiological saline, no injury, 6 hours", "value": 12}, {"measurement": "degree of cloudiness in the lens (relative value)", "setting": "75 mM in physiological saline, no injury, 24 hours", "value": 12}, {"measurement": "degree of cloudiness in the lens (relative value)", "setting": "75 mM in physiological saline, no injury, 2 days", "value": 12}, {"measurement": "degree of cloudiness in the lens (relative value)", "setting": "75 mM in physiological saline, no injury, 7 days", "value": 14}, {"measurement": "degree of cloudiness in the lens (relative value)", "setting": "75 mM in physiological saline, no injury, 14 days", "value": 21}, {"measurement": "degree of cloudiness in the lens (relative value)", "setting": "75 mM in physiological saline, no injury, 28 days", "value": 29}, {"measurement": "degree of cloudiness in the lens (relative value)", "setting": "75 mM in physiological saline, no injury, time 0", "value": 10}, {"measurement": "swelling of the lens (in words)", "setting": "75 mM or 50 mM, lenses with no injury, until 28 days", "value": "No swelling was observed"}, {"measurement": "degree of cloudiness in the lens (relative value)", "setting": "100 mM in physiological saline, injured lens, 1 hour", "value": 10}, {"measurement": "degree of cloudiness in the lens (relative value)", "setting": "100 mM in physiological saline, injured lens, 2 hours", "value": 10}, {"measurement": "degree of cloudiness in the lens (relative value)", "setting": "100 mM in physiological saline, injured lens, 6 hours", "value": 12}, {"measurement": "degree of cloudiness in the lens (relative value)", "setting": "100 mM in physiological saline, injured lens, 24 hours", "value": 12}, {"measurement": "degree of cloudiness in the lens (relative value)", "setting": "100 mM in physiological saline, injured lens, 2 days", "value": 12}, {"measurement": "degree of cloudiness in the lens (relative value)", "setting": "100 mM in physiological saline, injured lens, time 0", "value": 10}, {"measurement": "degree of cloudiness in the lens (relative value)", "setting": "100 mM in physiological saline, no injury, 1 hour", "value": 13}, {"measurement": "degree of cloudiness in the lens (relative value)", "setting": "100 mM in physiological saline, no injury, 2 hours", "value": 12}, {"measurement": "degree of cloudiness in the lens (relative value)", "setting": "100 mM in physiological saline, no injury, 6 hours", "value": 12}, {"measurement": "degree of cloudiness in the lens (relative value)", "setting": "100 mM in physiological saline, no injury, 24 hours", "value": 12}, {"measurement": "degree of cloudiness in the lens (relative value)", "setting": "100 mM in physiological saline, no injury, 2 days", "value": 11}, {"measurement": "degree of cloudiness in the lens (relative value)", "setting": "100 mM in physiological saline, no injury, 7 days", "value": 12}, {"measurement": "degree of cloudiness in the lens (relative value)", "setting": "100 mM in physiological saline, no injury, 14 days", "value": 15}, {"measurement": "degree of cloudiness in the lens (relative value)", "setting": "100 mM in physiological saline, no injury, 28 days", "value": 15}, {"measurement": "degree of cloudiness in the lens (relative value)", "setting": "100 mM in physiological saline, no injury, time 0", "value": 10}, {"measurement": "swelling of the lens (in words)", "setting": "100 mM, injured lens, 2 days after initiating observation", "value": "the swelling of the lens was not observed"}, {"measurement": "cloudiness in the lens (in words)", "setting": "100 mM, injured lens, after 2 days", "value": "partial cloudiness only at the injured site"}, {"measurement": "swelling of the lens (in words)", "setting": "100 mM, lenses with no injury, on 28 days", "value": "no swelling"}, {"measurement": "concentration with a satisfactory swelling-inhibitory-effect on the lens", "setting": "[4]", "value": "≥ 1", "unit": "mM"}, {"measurement": "concentration with an action of inhibiting the swelling and cloudiness in the lens and maintaining transparency", "setting": "[4]", "value": "≥ 50", "unit": "mM"}]}
